In patent publication US8268825B2 (priority 2005, dated 2012) one finds IC50 and MIC data, which are given here for seven compounds.

Structures are written as SMILES. Converted amounts (≈) assume the structure as drawn.

Assay [1] concerns the target T1, human DHFR (Homo sapiens, UniProt P00374).
T1 sequence (P00374 1-187): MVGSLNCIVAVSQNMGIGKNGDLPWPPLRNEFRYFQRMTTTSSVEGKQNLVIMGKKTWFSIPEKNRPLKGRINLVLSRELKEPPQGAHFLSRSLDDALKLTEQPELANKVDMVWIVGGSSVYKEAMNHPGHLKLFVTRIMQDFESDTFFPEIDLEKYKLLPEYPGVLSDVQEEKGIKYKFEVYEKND
Briefly: biochemical.

In assay [2] the target is Bacillus anthracis DHFR (Bacillus anthracis, UniProt Q81R22). Briefly: biochemical.
The subject of assay [3] is Bacillus anthracis Sterne. In words: microbe, parasite or virus in culture. The assay is classed as cell-based. The following applies: 16 h, read-out: MIC B. anthracis (ug/ml).

Bacillus anthracis DHFR, sequence (Q81R22 1-162): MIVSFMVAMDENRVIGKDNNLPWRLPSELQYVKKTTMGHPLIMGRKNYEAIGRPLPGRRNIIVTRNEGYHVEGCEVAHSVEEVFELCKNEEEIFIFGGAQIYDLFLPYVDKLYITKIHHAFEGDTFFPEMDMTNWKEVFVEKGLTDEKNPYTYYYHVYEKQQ

Consider `CCCC1c2ccccc2C=NN1C(=O)/C=C/c1cc(Cc2cnc(N)nc2N)cc(OC)c1OC` (stereo not shown), for which the IC50 (as a rule, the concentration at which inhibition is half-maximal) in assay [1] stood at 110 µM; in assay [2], 54 nM. In assay [3], the MIC is 13 µg/mL (≈ 26.7 µM).

As for `COc1cc(Cc2cnc(N)nc2N)cc(/C=C/C(=O)N2N=Cc3ccccc3C2c2ccccc2)c1OC.CS(=O)(=O)O` (stereo not shown), in assay [2], half-maximal inhibition (IC50) required 46 nM. Moreover, the MIC in assay [3] was 26 µg/mL.

For `CCCCC1c2ccccc2C=NN1C(=O)/C=C/c1cc(Cc2cnc(N)nc2N)cc(OC)c1OC` (stereo not shown), the IC50 in assay [2] was determined as 170 nM. Also, the MIC in assay [3] is at most 13 µg/mL.

In turn, `COc1cc(Cc2cnc(N)nc2N)cc(/C=C/C(=O)N2N=Cc3ccccc3C2C2CCCCC2)c1OC` (stereo not shown) displayed an IC50 in assay [2] of 260 nM. For the same compound, the MIC in assay [3] is at most 13 µg/mL.

For the compound `COc1cc(Cc2cnc(N)nc2N)cc(/C=C/C(=O)N2N=Cc3ccccc3C2C2CCCC2)c1OC` (stereo not shown), the results for the half-inhibitory concentration (IC50) in assay [1] and in assay [2] were over 21 µM and 200 nM, respectively. Moreover, in assay [3], the MIC was at most 26 µg/mL.

As for `COc1cc(Cc2cnc(N)nc2N)cc(/C=C/C(=O)N2N=Cc3ccccc3C2c2ccccc2)c1OCCN1CCOCC1` (stereo not shown), the values for the IC50 in assay [1] and in assay [2] were over 16 µM and 170 nM, respectively. For the same compound, the MIC in assay [3] is at most 32 µg/mL.

`COc1cc(Cc2cnc(N)nc2N)cc(OC)c1OC` [Trimethoprim, reference compound]: in assay [3], the MIC was over 2000 µg/mL.
